Target: T1, human topoisomerase I (Homo sapiens, UniProt P11387)
T1 construct: purchased Sigma T9069
T1 sequence (P11387 1-765): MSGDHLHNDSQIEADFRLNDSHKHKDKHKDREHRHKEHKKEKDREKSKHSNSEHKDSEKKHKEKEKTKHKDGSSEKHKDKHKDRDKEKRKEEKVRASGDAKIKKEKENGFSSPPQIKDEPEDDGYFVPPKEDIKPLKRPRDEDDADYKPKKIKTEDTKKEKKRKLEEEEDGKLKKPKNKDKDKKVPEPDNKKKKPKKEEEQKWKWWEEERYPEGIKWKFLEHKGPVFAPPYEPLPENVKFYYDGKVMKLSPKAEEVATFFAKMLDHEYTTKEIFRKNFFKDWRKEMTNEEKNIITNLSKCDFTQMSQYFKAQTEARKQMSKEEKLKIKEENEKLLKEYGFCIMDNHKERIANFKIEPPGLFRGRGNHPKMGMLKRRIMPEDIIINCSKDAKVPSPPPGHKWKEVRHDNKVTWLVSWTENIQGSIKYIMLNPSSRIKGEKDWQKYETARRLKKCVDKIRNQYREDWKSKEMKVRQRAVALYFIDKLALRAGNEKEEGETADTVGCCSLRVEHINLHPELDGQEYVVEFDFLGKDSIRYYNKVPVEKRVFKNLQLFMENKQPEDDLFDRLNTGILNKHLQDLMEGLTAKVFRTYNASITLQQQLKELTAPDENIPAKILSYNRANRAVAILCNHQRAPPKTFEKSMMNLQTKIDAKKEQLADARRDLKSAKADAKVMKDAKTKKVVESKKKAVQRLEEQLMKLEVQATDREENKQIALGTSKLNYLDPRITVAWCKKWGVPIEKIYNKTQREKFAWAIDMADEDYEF
Test: Topoisomerase I activity inhibition test
Type: biochemical
Details: supercoiled plasmid DNA, 37° C., 60 minutes
Experimental: For measuring topoisomerase I activity inhibitory actions, Human DNA Topoisomerase I Assay Kit (manufactured by ProFoldin, HRA100K) was used. A human topoisomerase I (manufactured by Sigma, T9069) was added to a Tris-HCl buffer containing KCl, DTT, MgCl2, EDTA, and BSA to prepare a reaction solution. The reaction solution (35.2 μL) and a test compound solution (4.4 μL) prepared by an aqueous solution containing 10% DMSO were mixed in a 1.5 mL microtube, and the resulting mixture was reacted at 37° C. for 10 minutes. Subsequently, a supercoiled plasmid DNA (4.4 μL) was added thereto, and the resulting mixture was reacted at 37° C. for 60 minutes. After the reaction, the solution was added to a 96 well plate (manufactured by Corning Inc., 3904) at 40 μL/well, and a Dye H19 solution (250 μL) diluted 10 times with the buffer included with the kit was added thereto. A microplate reader (Infinite F500, manufactured by TECAN) was used to measure the fluorescence intensity (excitation wavelength: 485 nm, detection wavelength: 535 nm) of each well.
The topoisomerase I activity inhibition rate (%) was calculated by the following equation.

Compound: CC[C@@]1(O)C(=O)OCc2c1cc1n(c2=O)Cc2c-1nc1cc(F)c(C)c3c1c2[C@@H](NC(C)=O)CC3 [Example U-001]
- IC50: ≤ 15 µM

Compound: CC[C@@]1(O)C(=O)OCc2c1cc1n(c2=O)Cc2c-1nc1cc(F)c(C)c3c1c2[C@@H](NC(=O)CCO)CC3 [Example U-002]
- IC50: ≤ 15 µM

Compound: CC[C@@]1(O)C(=O)OCc2c1cc1n(c2=O)Cc2c-1nc1cc(F)c(C)c3c1c2[C@@H](NC(=O)CNC)CC3 [Example U-003]
- IC50: ≤ 15 µM

Compound: CC[C@@]1(O)C(=O)OCc2c1cc1n(c2=O)Cc2c-1nc1cc(F)c(C)c3c1c2[C@@H](NC(=O)c1cccc(N)c1)CC3 [Example U-004]
- IC50: ≤ 15 µM

Compound: CC[C@@]1(O)C(=O)OCc2c1cc1n(c2=O)Cc2c-1nc1cc(F)c(C)c3c1c2[C@@H](NC(=O)c1ccc(N)cc1)CC3 [Example U-005]
- IC50: ≤ 15 µM

Compound: CC[C@@]1(O)C(=O)OCc2c1cc1n(c2=O)Cc2c-1nc1cc(F)c(C)c3c1c2[C@@H](NC(=O)Cc1cccc(N)c1)CC3 [Example U-006]
- IC50: ≤ 15 µM

Compound: CC[C@@]1(O)C(=O)OCc2c1cc1n(c2=O)Cc2c-1nc1cc(F)c(C)c3c1c2[C@@H](NC(=O)Cc1ccc(N)cc1)CC3 [Example U-007]
- IC50: ≤ 15 µM
